Data: patent publication US20240116946A1 (Gilead Sciences, Inc., priority 2022, published 2024)

Assays:
[1] = target: recombinant SARS-CoV-2 Main protease (Mpro) (Severe acute respiratory syndrome coronavirus 2 (2019-nCoV) (SARS-CoV-2), UniProt P0DTD1); assay: Cov Mpro Biochemical IC50 Assay; conditions: recombinant SARS-CoV-2 Mpro 7.5 nM, fluorogenic peptide substrate 40 μM; read-out: MPro IC50
SARS-CoV-2-NLuc = assay: microbe, parasite or virus in culture; format: cell-based, SARS Coronavirus 2; conditions: read-out: MPro EC50

COc1cc(-c2cc3c(s2)c(=O)n(-c2cncc4nn(C)c(C)c24)c(=O)n3CCC#N)c(Cl)cc1F (single isomer, unassigned) [Example 1041, 3-(6-(2-chloro-4-fluoro-5-methoxyphenyl)-3-(2,3-dimethyl-2H-pyrazolo[3,4-c]pyridin-4-yl)-2,4-dioxo-3,4-dihydrothieno[3,2-d]pyrimidin-1(2H)-yl)propanenitrile]
IC50 [1]: 2.99 nM
EC50 (SARS-CoV-2-NLuc): 5.72 nM

COc1cc(-c2cc3c(s2)c(=O)n(-c2cncc4nn(C)c(C)c24)c(=O)n3CCC#N)c(Cl)cc1F (single isomer, unassigned) [Example 1042, 3-(6-(2-chloro-4-fluoro-5-methoxyphenyl)-3-(2,3-dimethyl-2H-pyrazolo[3,4-c]pyridin-4-yl)-2,4-dioxo-3,4-dihydrothieno[3,2-d]pyrimidin-1(2H)-yl)propanenitrile]
IC50 [1]: > 1000 nM
EC50 (SARS-CoV-2-NLuc): > 1000 nM

COc1cc(-c2cc3c(s2)c(=O)n(-c2cncc4c2c(C)nn4C)c(=O)n3CCC#N)c(Cl)cc1F (single isomer, unassigned) [Example 1043, 3-(6-(2-chloro-4-fluoro-5-methoxyphenyl)-3-(1,3-dimethyl-1H-pyrazolo[3,4-c]pyridin-4-yl)-2,4-dioxo-3,4-dihydrothieno[3,2-d]pyrimidin-1(2H)-yl)propanenitrile]
IC50 [1]: > 1000 nM
EC50 (SARS-CoV-2-NLuc): > 1000 nM

COc1cc(-c2cc3c(s2)c(=O)n(-c2cncc4c2c(C)nn4C)c(=O)n3CCC#N)c(Cl)cc1F (single isomer, unassigned) [Example 1044, 3-(6-(2-chloro-4-fluoro-5-methoxyphenyl)-3-(1,3-dimethyl-1H-pyrazolo[3,4-c]pyridin-4-yl)-2,4-dioxo-3,4-dihydrothieno[3,2-d]pyrimidin-1(2H)-yl)propanenitrile]
IC50 [1]: 3.55 nM
EC50 (SARS-CoV-2-NLuc): 3.21 nM

COc1ccc(Cl)c(-c2cc3[nH]c(=O)n(-c4cncc5scc(C)c45)c(=O)c3s2)c1 (single isomer, unassigned) [Example 1052, 6-(2-chloro-5-methoxyphenyl)-3-(3-methylthieno[2,3-c]pyridin-4-yl)thieno[3,2-d]pyrimidine-2,4(1H,3H)-dione]
IC50 [1]: 3.67 nM
EC50 (SARS-CoV-2-NLuc): 2.66 nM

COc1ccc(Cl)c(-c2cc3[nH]c(=O)n(-c4cncc5scc(C)c45)c(=O)c3s2)c1 (single isomer, unassigned) [Example 1053, 6-(2-chloro-5-methoxyphenyl)-3-(3-methylthieno[2,3-c]pyridin-4-yl)thieno[3,2-d]pyrimidine-2,4(1H,3H)-dione]
IC50 [1]: 83.3 nM
EC50 (SARS-CoV-2-NLuc): 48.5 nM

COc1cc(-c2cc3[nH]c(=O)n(-c4cncc5ccccc45)c(=O)c3cc2OC)c(Cl)cc1F (single isomer, unassigned) [Example 1054, 7-(2-chloro-4-fluoro-5-methoxyphenyl)-3-(isoquinolin-4-yl)-6-methoxyquinazoline-2,4(1H,3H)-dione]
IC50 [1]: 34.6 nM
EC50 (SARS-CoV-2-NLuc): 15.5 nM

COc1cc(-c2cc3[nH]c(=O)n(-c4cncc5ccccc45)c(=O)c3cc2OC)c(Cl)cc1F (single isomer, unassigned) [Example 1055, 7-(2-chloro-4-fluoro-5-methoxyphenyl)-3-(isoquinolin-4-yl)-6-methoxyquinazoline-2,4(1H,3H)-dione]
IC50 [1]: 459 nM
EC50 (SARS-CoV-2-NLuc): 460 nM

COc1cc(-c2cc3[nH]c(=O)n(-c4cncc5scc(C)c45)c(=O)c3s2)c(Cl)cc1F (single isomer, unassigned) [Example 1056, 6-(2-chloro-4-fluoro-5-methoxyphenyl)-3-(3-methylthieno[2,3-c]pyridin-4-yl)thieno[3,2-d]pyrimidine-2,4(1H,3H)-dione]
IC50 [1]: 2.34 nM
EC50 (SARS-CoV-2-NLuc): < 1.01 nM

COc1cc(-c2cc3[nH]c(=O)n(-c4cncc5scc(C)c45)c(=O)c3s2)c(Cl)cc1F (single isomer, unassigned) [Example 1057, 6-(2-chloro-4-fluoro-5-methoxyphenyl)-3-(3-methylthieno[2,3-c]pyridin-4-yl)thieno[3,2-d]pyrimidine-2,4(1H,3H)-dione]
IC50 [1]: 145 nM
EC50 (SARS-CoV-2-NLuc): 52.6 nM

COc1cc(-c2cc3c(s2)c(=O)n(-c2cncc4nnn(C)c24)c(=O)n3CCC#N)c(Cl)cc1F (single isomer, unassigned) [Example 1058, 3-(6-(2-chloro-4-fluoro-5-methoxyphenyl)-3-(1-methyl-1H-[1,2,3]triazolo[4,5-c]pyridin-7-yl)-2,4-dioxo-3,4-dihydrothieno[3,2-d]pyrimidin-1(2H)-yl)propanenitrile]
IC50 [1]: 2.86 nM
EC50 (SARS-CoV-2-NLuc): 5.15 nM

COc1cc(-c2cc3c(s2)c(=O)n(-c2cncc4nnn(C)c24)c(=O)n3CCC#N)c(Cl)cc1F (single isomer, unassigned) [Example 1059, 3-(6-(2-chloro-4-fluoro-5-methoxyphenyl)-3-(1-methyl-1H-[1,2,3]triazolo[4,5-c]pyridin-7-yl)-2,4-dioxo-3,4-dihydrothieno[3,2-d]pyrimidin-1(2H)-yl)propanenitrile]
IC50 [1]: 44.7 nM
EC50 (SARS-CoV-2-NLuc): 101 nM

Cn1ncc2cncc(-n3c(=O)c4sc(-c5cc(F)c(F)cc5Cl)cc4n(CCC#N)c3=O)c21 (single isomer, unassigned) [Example 1076, 3-[6-(2-chloro-4,5-difluoro-phenyl)-3-(1-methylpyrazolo[4,3-c]pyridin-7-yl)-2,4-dioxo-thieno[3,2-d]pyrimidin-1-yl]propanenitrile]
IC50 [1]: 3.64 nM
EC50 (SARS-CoV-2-NLuc): 10.9 nM

Cn1ncc2cncc(-n3c(=O)c4sc(-c5cc(F)c(F)cc5Cl)cc4n(CCC#N)c3=O)c21 (single isomer, unassigned) [Example 1077, 3-[6-(2-chloro-4,5-difluoro-phenyl)-3-(1-methylpyrazolo[4,3-c]pyridin-7-yl)-2,4-dioxo-thieno[3,2-d]pyrimidin-1-yl]propanenitrile]
IC50 [1]: 485 nM
EC50 (SARS-CoV-2-NLuc): > 1000 nM

COc1cnc(Cl)c(-c2cc3c(s2)c(=O)n(-c2cncc4ccccc24)c(=O)n3CCC#N)c1 (single isomer, unassigned) [Example 1088, 3-(6-(2-chloro-5-methoxypyridin-3-yl)-3-(isoquinolin-4-yl)-2,4-dioxo-3,4-dihydrothieno[3,2-d]pyrimidin-1(2H)-yl)propanenitrile]
IC50 [1]: 1.65 nM
EC50 (SARS-CoV-2-NLuc): 3.27 nM

COc1cnc(Cl)c(-c2cc3c(s2)c(=O)n(-c2cncc4ccccc24)c(=O)n3CCC#N)c1 (single isomer, unassigned) [Example 1089, 3-(6-(2-chloro-5-methoxypyridin-3-yl)-3-(isoquinolin-4-yl)-2,4-dioxo-3,4-dihydrothieno[3,2-d]pyrimidin-1(2H)-yl)propanenitrile]
IC50 [1]: > 1000 nM
EC50 (SARS-CoV-2-NLuc): > 1000 nM

COc1cnc(Cl)c(-c2cc3c(s2)c(=O)n(-c2cncc4cnn(C)c24)c(=O)n3CCC#N)c1 (single isomer, unassigned) [Example 1090, 3-(6-(2-chloro-5-methoxypyridin-3-yl)-3-(1-methyl-1H-pyrazolo[4,3-c]pyridin-7-yl)-2,4-dioxo-3,4-dihydrothieno[3,2-d]pyrimidin-1(2H)-yl)propanenitrile]
IC50 [1]: 1.5 nM
EC50 (SARS-CoV-2-NLuc): 5.22 nM

COc1cnc(Cl)c(-c2cc3c(s2)c(=O)n(-c2cncc4cnn(C)c24)c(=O)n3CCC#N)c1 (single isomer, unassigned) [Example 1091, 3-(6-(2-chloro-5-methoxypyridin-3-yl)-3-(1-methyl-1H-pyrazolo[4,3-c]pyridin-7-yl)-2,4-dioxo-3,4-dihydrothieno[3,2-d]pyrimidin-1(2H)-yl)propanenitrile]
IC50 [1]: 141 nM
EC50 (SARS-CoV-2-NLuc): 451 nM

COc1cnc(C#N)c(-c2cc3c(s2)c(=O)n(-c2cncc4ccccc24)c(=O)n3CCC#N)c1 (single isomer, unassigned) [Example 1092, 3-(1-(2-cyanoethyl)-3-(isoquinolin-4-yl)-2,4-dioxo-1,2,3,4-tetrahydrothieno[3,2-d]pyrimidin-6-yl)-5-methoxypicolinonitrile]
IC50 [1]: 5.1 nM
EC50 (SARS-CoV-2-NLuc): 11.2 nM

COc1cnc(C#N)c(-c2cc3c(s2)c(=O)n(-c2cncc4ccccc24)c(=O)n3CCC#N)c1 (single isomer, unassigned) [Example 1093, 3-(1-(2-cyanoethyl)-3-(isoquinolin-4-yl)-2,4-dioxo-1,2,3,4-tetrahydrothieno[3,2-d]pyrimidin-6-yl)-5-methoxypicolinonitrile]
IC50 [1]: 104 nM
EC50 (SARS-CoV-2-NLuc): 160 nM

COc1cnc(Cl)c(-c2cc3c(s2)c(=O)n(-c2cncc4cccc(F)c24)c(=O)n3CCC#N)c1 (single isomer, unassigned) [Example 1094, 3-(6-(2-chloro-5-methoxypyridin-3-yl)-3-(5-fluoroisoquinolin-4-yl)-2,4-dioxo-3,4-dihydrothieno[3,2-d]pyrimidin-1(2H)-yl)propanenitrile]
IC50 [1]: 3.27 nM
EC50 (SARS-CoV-2-NLuc): 9.71 nM

COc1cnc(Cl)c(-c2cc3c(s2)c(=O)n(-c2cncc4cccc(F)c24)c(=O)n3CCC#N)c1 (single isomer, unassigned) [Example 1095, 3-(6-(2-chloro-5-methoxypyridin-3-yl)-3-(5-fluoroisoquinolin-4-yl)-2,4-dioxo-3,4-dihydrothieno[3,2-d]pyrimidin-1(2H)-yl)propanenitrile]
IC50 [1]: 55.6 nM
EC50 (SARS-CoV-2-NLuc): 123 nM

COc1cc(-c2cc3c(s2)c(=O)n(-c2cncc4ccncc24)c(=O)n3CCC#N)c(Cl)cc1F (single isomer, unassigned) [Example 1097, 3-[6-(2-chloro-4-fluoro-5-methoxy-phenyl)-3-(2,6-naphthyridin-4-yl)-2,4-dioxo-thieno[3,2-d]pyrimidin-1-yl]propanenitrile]
IC50 [1]: 42.5 nM
EC50 (SARS-CoV-2-NLuc): 33.2 nM

COc1cc(-c2cc3c(s2)c(=O)n(-c2cncc4ccncc24)c(=O)n3CCC#N)c(Cl)cc1F (single isomer, unassigned) [Example 1098, 3-[6-(2-chloro-4-fluoro-5-methoxy-phenyl)-3-(2,6-naphthyridin-4-yl)-2,4-dioxo-thieno[3,2-d]pyrimidin-1-yl]propanenitrile]
IC50 [1]: 3.81 nM
EC50 (SARS-CoV-2-NLuc): 1.91 nM
